Counter-ions that a name gives are not always drawn.
Legend:
MV-4-11 AML cells = assay: MV-4-11 cell proliferation assay (CellTiter-Glo, 6 days); assay type: cell-based; conditions: Homo sapiens, MV4-11, 144 h; 6 days treatment; binning as pXC50; read-out: MV4-11 Anti-proliferative activity (EC50 category)
Method: MV-4-11 Anti-Proliferative Activity (pEC50 Category)
Cell proliferation assay. Optimal cell seeding density was determined empirically for MV-4-11 AML cells by examining the growth of a wide range of seeding densities in a 384-well format to identify conditions that permitted maximal and continued proliferation for 6 days. MV-4-11 cells were plated in duplicate plates 24 hours before treatment with a 20-point two-fold dilution series of compound or 0.15% DMSO. Plates were incubated for 6 days at 37° C. in 5% CO2. Cells were then lysed with CellTiter-Glo (CTG) (Promega) and chemiluminescent signal was detected with an appropriate microplate reader. In addition, an untreated plate of cells was harvested at the time of compound addition (T0) to quantify the initial cell density. CTG values obtained after 6 days of treatment were expressed as a percent of the T0 value and plotted against compound concentration. Data were fit with a four parameter equation to generate a concentration response curve from which growth IC50 values were calculated.

[1] = system: erythroid progenitor cells (EPCs); assay: Fetal hemoglobin (HbF) ELISA in day 7 erythroid progenitor cells; assay type: cell-based, human; conditions: Homo sapiens, Erythroid progenitor cell, HbF ELISA, day 7 EPCs, 5 days; read-out: EPC ELISA (pEC50 category) (converted);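 further: for fetal hemoglobin induction normalized to vehicle-treated cells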
How it was run: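 HbF induction was read by anti-HbF sandwich ELISA (HRP/TMB, OD450) on lysates and normalized to vehicle-treated cells. Cells were day 7 erythroid progenitors derived from human bone marrow CD34+ cells, seeded at 1,000/well with 3 U/mL rhEPO. Compound was given for 5 days at 37 °C at final concentrations […].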

DNMT1 = DNMT1 (Homo sapiens, UniProt P26358); assay: DNMT1 biochemical activity, breaklight assay and/or SPA assay; conditions: for DNMT1 BioChemical (pIC50 category) / IC50: binned activity in either the breaklight or the SPA assay; for IC50: read-out: DNMT1 BioChemical (pIC50 category) (converted)
DNMT1, sequence (P26358 whole entry, looked up): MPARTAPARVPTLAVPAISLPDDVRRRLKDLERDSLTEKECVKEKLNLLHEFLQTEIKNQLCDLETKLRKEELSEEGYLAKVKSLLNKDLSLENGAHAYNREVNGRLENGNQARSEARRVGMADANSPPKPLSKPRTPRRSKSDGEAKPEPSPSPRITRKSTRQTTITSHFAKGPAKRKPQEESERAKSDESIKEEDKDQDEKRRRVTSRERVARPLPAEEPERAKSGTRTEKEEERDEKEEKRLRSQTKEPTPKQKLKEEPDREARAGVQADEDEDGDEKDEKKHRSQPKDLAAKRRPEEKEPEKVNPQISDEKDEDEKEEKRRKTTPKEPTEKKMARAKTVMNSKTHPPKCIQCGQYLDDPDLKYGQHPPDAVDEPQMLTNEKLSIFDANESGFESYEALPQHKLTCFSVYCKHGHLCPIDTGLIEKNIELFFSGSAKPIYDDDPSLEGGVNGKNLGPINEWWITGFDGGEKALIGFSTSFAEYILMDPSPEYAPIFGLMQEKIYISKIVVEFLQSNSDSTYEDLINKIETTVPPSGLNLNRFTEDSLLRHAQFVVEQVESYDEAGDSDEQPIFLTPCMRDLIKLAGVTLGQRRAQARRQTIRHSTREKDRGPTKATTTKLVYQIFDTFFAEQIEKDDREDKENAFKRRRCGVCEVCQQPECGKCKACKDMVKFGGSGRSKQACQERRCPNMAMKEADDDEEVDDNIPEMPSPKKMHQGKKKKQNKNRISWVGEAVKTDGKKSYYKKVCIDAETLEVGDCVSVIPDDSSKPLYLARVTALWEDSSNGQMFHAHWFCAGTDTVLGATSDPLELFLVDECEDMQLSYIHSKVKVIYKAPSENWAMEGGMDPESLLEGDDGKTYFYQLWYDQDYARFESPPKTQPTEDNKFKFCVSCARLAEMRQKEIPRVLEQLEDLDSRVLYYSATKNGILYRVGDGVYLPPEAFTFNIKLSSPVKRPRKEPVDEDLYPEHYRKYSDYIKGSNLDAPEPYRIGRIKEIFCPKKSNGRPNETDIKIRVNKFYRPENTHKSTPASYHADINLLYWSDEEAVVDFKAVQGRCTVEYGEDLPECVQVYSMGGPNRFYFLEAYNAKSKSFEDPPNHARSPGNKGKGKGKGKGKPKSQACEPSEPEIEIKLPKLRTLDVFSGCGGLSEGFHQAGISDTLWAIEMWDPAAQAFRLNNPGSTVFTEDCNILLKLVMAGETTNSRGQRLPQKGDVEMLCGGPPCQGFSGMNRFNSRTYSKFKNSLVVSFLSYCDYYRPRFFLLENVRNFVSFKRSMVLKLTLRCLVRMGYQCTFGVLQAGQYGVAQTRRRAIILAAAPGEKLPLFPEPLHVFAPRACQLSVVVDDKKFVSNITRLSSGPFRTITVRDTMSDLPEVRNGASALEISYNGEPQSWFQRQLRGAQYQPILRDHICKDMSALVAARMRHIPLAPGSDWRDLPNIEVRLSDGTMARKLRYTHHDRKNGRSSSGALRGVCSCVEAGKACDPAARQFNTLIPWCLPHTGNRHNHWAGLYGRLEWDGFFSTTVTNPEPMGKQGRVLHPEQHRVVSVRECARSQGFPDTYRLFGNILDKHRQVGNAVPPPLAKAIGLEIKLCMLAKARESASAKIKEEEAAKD

human full length DNMT1 = human full length DNMT1 (Homo sapiens (Human), UniProt P26358); assay: DNMT1 breaklight assay; assay type: biochemical; conditions: repeated experimental runs, read-out: average IC50 against DNMT1
human full length DNMT1, sequence (P26358 whole entry): as the sequence (P26358 whole entry, looked up) above
Method: DNMT1 breaklight in vitro assays were conducted in a total volume of 50 μl in a standard 384 well format, using black non-binding surface microplates (Corning 3575). Five μl of human full length DNMT1 (produced internally), used at a final concentration of 40 nM, was added to 5 μl of substrate mixture containing final concentrations of 125 nM hemi methylated oligonucleotide (synthesized at ATD Bio; 5′-FAM-[…]5[…]5G5TAGAT-3′ where 5=methyl deoxycitidine) and 2 μM ultrapure SAM (Cisbio #62SAHZLD). Negative control wells used 5 μl of DNMT1 and 5 μl of oligonucleotide but 0 μM SAM. All reagents were made up in 1× assay buffer (20 mM Tris pH 6.8, 25 mM NaCl, 0.5 mM MgCl2, 0.01% Triton X100 and 1 mM DTT). The reaction was incubated at 26° C. for 45 min and then stopped with the addition of 40 μl detection reagent. Detection reagent, made up in 1× Gla assay buffer (20 mM Tris pH 8.0, 80 mM NaCl, 0.75 mM MgCl2, 0.01% Triton X100 and 1 mM DTT) has a final concentration of 100 μM SAH (Sigma #A9384) and 0.0008 units/μl Gla1 restriction endonuclease (Sibenzyme #E494). Following addition of the detection reagent the plate was incubated in the dark at room temperature for 5 hr. Fluorescence intensity was then measured on the PHERAstar FS (BMG Labtech) at Ex 485 nm and Em 520 nm, with a gain of 400 and an integration time of 100 ms.

| Compound | EC50 (MV-4-11 AML cells) [nM] | EC50 [1] [nM] | DNMT1 BioChemical (pIC50 category) (DNMT1) | IC50 (human full length DNMT1) [nM] | IC50 (DNMT1) [nM] | average pIC50 against DNMT1 (DNMT1; breaklight assay and/or SPA assay, repeated experimental runs) |
| --- | --- | --- | --- | --- | --- | --- |
| CCc1c(C#N)c(SC(C(N)=O)c2ccccc2)nc(N(C)CCN2CCOCC2)c1C#N (stereo not drawn) [Example 11, 2-[(3,5-dicyano-4-ethyl-6-{methyl[2-(morpholin-4-yl)ethyl]amino}pyridin-2-yl)sulfanyl]-2-phenylacetamide] |  | 316 to 1000 |  | 580 | 316 to 1000 |  |
| CCCN1CCN(c2nc(SC(C(N)=O)c3ccccc3)c(C#N)c(CC)c2C#N)CC1 (stereo not drawn) [Example 12, 2-{[3,5-dicyano-4-ethyl-6-(4-propylpiperazin-1-yl)pyridin-2-yl]sulfanyl}-2-phenylacetamide] |  | 316 to 1000 |  | ≤ 500 | 316 to 1000 |  |
| N#Cc1c(SC(C(N)=O)c2ccncc2)nc(N2CCCNCC2)c(C#N)c1C1CC1 (stereo not drawn) [Example 31, 2-((3,5-dicyano-4-cyclopropyl-6-(1,4-diazepan-1-yl)pyridin-2-yl)thio)-2-(pyridin-4-yl)acetamide] | 1000 to 31600 | > 31600 |  |  | 316 to 1000 |  |
| N#Cc1c(SC(C(N)=O)c2ccncc2)nc(N2CC[C@H](O)C2)c(C#N)c1C1CC1 (stereo partly drawn) [Example 34, 2-((3,5-dicyano-4-cyclopropyl-6-((S)-3-hydroxypyrrolidin-1-yl)pyridin-2-yl)thio)-2-(pyridin-4-yl)acetamide] | 1000 to 31600 | 1000 to 31600 |  |  | 316 to 1000 |  |
| CCc1c(C#N)c(SC(C(N)=O)c2ccccc2)nc(N2CCC3(CCO3)C2)c1C#N (stereo not drawn) [Example 36, 2-((3,5-Dicyano-4-ethyl-6-(1-oxa-6-azaspiro[3.4]octan-6-yl)pyridin-2-yl)thio)-2-phenylacetamide] |  | 1000 to 31600 | D (Category D: ≥6.5) | > 750 |  |  |
| CCc1c(C#N)c(SC(C(N)=O)c2ccccc2)nc(N2CCN(CCCN)CC2)c1C#N (stereo not drawn) [Example 37, 2-((6-(4-(3-aminopropyl)piperazin-1-yl)-3,5-dicyano-4-ethylpyridin-2-yl)thio)-2-phenylacetamide] |  | 1000 to 31600 |  | ≤ 500 | 316 to 1000 |  |
| N#Cc1c(SC(C(N)=O)c2ccccc2)nc(N2CCC(N3CCCC3)CC2)c(C#N)c1C1CC1 (stereo not drawn) [Example 42, 2-((3,5-Dicyano-4-cyclopropyl-6-(4-(pyrrolidin-1-yl)piperidin-1-yl)pyridin-2-yl)thio)-2-phenylacetamide trifluoroacetate] | 316 to 1000 | < 316 | D (Category D: ≥6.5) |  |  |  |
| CCc1c(C#N)c(SC(C(N)=O)c2ccccc2)nc(N2CCC3(CC2)CNC3)c1C#N (stereo not drawn) [Example 43, 2-((3,5-Dicyano-4-ethyl-6-(2,7-diazaspiro[3.5]nonan-7-yl)pyridin-2-yl)thio)-2-phenylacetamide] |  | 316 to 1000 | D (Category D: ≥6.5) | ≤ 500 |  |  |
| CCc1c(C#N)c(SC(C(N)=O)c2ccccc2)nc(N2CCC3(CNC3)C2)c1C#N (stereo not drawn) [Example 44, 2-((3,5-Dicyano-4-ethyl-6-(2,6-diazaspiro[3.4]octan-6-yl)pyridin-2-yl)thio)-2-phenylacetamide] | 1000 to 31600 | 1000 to 31600 | D (Category D: ≥6.5) |  |  |  |
| CCc1c(C#N)c(SC(C(N)=O)c2ccccc2)nc(N2C[C@@H](C)N[C@@H](C)C2)c1C#N (stereo partly drawn) [Example 61, 2-((3,5-Dicyano-6-((3S,5R)-3,5-dimethylpiperazin-1-yl)-4-ethylpyridin-2-yl)thio)-2-phenylacetamide] |  | < 316 | D (Category D: ≥6.5) | ≤ 500 |  |  |
| CCc1c(C#N)c(N[C@@H](C(N)=O)c2ccccc2)nc(N2CCCN(CCO)CC2)c1C#N [Example 114, (2R)-2-({3,5-Dicyano-4-ethyl-6-[4-(2-hydroxyethyl)-1,4-diazepan-1-yl]pyridin-2-yl}amino)-2-phenylacetamide] | 1000 to 31600 | 1000 to 31600 |  |  | 316 to 1000 |  |
| CCc1c(C#N)c(SC(C(N)=O)c2ccccc2)nc(N2CCC(C3CCNCC3)CC2)c1C#N (stereo not drawn) [Example 122, 2-((6-([4,4′-Bipiperidin]-1-yl)-3,5-dicyano-4-ethylpyridin-2-yl)thio)-2-phenylacetamide; 2,2,2-trifluoroacetic acid] | 316 to 1000 | < 316 | D (Category D: ≥6.5) |  |  | > 6.5 |
| CCc1c(C#N)c(SC(C(N)=O)c2ccccc2)nc(N2CCN(CCN)CC2)c1C#N (stereo not drawn) [Example 123, 2-((6-(4-(2-Aminoethyl)piperazin-1-yl)-3,5-dicyano-4-ethylpyridin-2-yl)thio)-2-phenylacetamide] | 1000 to 31600 | < 316 | D (Category D: ≥6.5) |  |  |  |

More lines, main results first:

| EC50 (MV-4-11 AML cells) [nM] | EC50 [1] [nM] | DNMT1 BioChemical (pIC50 category) (DNMT1) | IC50 (human full length DNMT1) [nM] | IC50 (DNMT1) [nM] | Compound | average pIC50 against DNMT1 (DNMT1; breaklight assay and/or SPA assay, repeated experimental runs) |
| --- | --- | --- | --- | --- | --- | --- |
| 1000 to 31600 | < 316 | D (Category D: ≥6.5) |  |  | N#Cc1c(SC(C(N)=O)c2ccccc2)nc(N2CCCNCC2)c(C#N)c1C1CC1 (stereo not drawn) [Example 4, 2-((3,5-dicyano-4-cyclopropyl-6-(1,4-diazepan-1-yl)pyridin-2-yl)thio)-2-phenylacetamide] |  |
|  | < 316 | D (Category D: ≥6.5) | ≤ 500 |  | CCN1CCCN(c2nc(SC(C(N)=O)c3ccccc3)c(C#N)c(C3CC3)c2C#N)CC1 (stereo not drawn) [Example 5, 2-{[3,5-dicyano-4-cyclopropyl-6-(4-ethyl-1,4-diazepan-1-yl)pyridin-2-yl]sulfanyl}-2-phenylacetamide] |  |
|  | 1000 to 31600 |  | 440 | 316 to 1000 | N#Cc1c(SC(C(N)=O)c2ccccc2)nc(N2CCNC(=O)C2)c(C#N)c1C1CC1 (stereo not drawn) [Example 15, 2-{[3,5-dicyano-4-cyclopropyl-6-(3-oxopiperazin-1-yl)pyridin-2-yl]sulfanyl}-2-phenylacetamide] |  |
| 1000 to 31600 | < 316 | D (Category D: ≥6.5) |  |  | CN(C)C1CCCN(c2nc(SC(C(N)=O)c3ccccc3)c(C#N)c(C3CC3)c2C#N)C1 (stereo not drawn) [Example 18, 2-((3,5-Dicyano-4-cyclopropyl-6-(3-(dimethylamino)piperidin-1-yl)pyridin-2-yl)thio)-2-phenylacetamide] |  |
|  | < 316 |  | ≤ 500 |  | CC1CN(c2nc(SC(C(N)=O)c3ccccc3)c(C#N)c(C3CC3)c2C#N)CC(C)N1 (stereo not drawn) [Example 20] |  |
|  | 1000 to 31600 |  | > 750 | 316 to 1000 | CC1CN(c2nc(SC(C(N)=O)c3ccccc3)c(C#N)c(C3CC3)c2C#N)CC(C)O1 (stereo not drawn) [Example 21, 2-((3,5-Dicyano-4-cyclopropyl-6-(2,6-dimethylmorpholino)pyridin-2-yl)thio)-2-phenylacetamide] |  |
|  | < 316 |  | > 750 | 316 to 1000 | CN1CCN(c2nc(SC(C(N)=O)c3ccccc3)c(C#N)c(C3CC3)c2C#N)CC1=O (stereo not drawn) [Example 22] |  |
|  | < 316 | D (Category D: ≥6.5) | ≤ 500 |  | N#Cc1c(SC(C(N)=O)c2ccccc2)nc(N2CCCC(N)C2)c(C#N)c1C1CC1 (stereo not drawn) [Example 25, 2-((6-(3-aminopiperidin-1-yl)-3,5-dicyano-4-cyclopropylpyridin-2-yl)thio)-2-phenylacetamide] |  |
|  | < 316 | D (Category D: ≥6.5) | ≤ 500 |  | N#Cc1c(SC(C(N)=O)c2ccccc2)nc(N2CCC(N)CC2)c(C#N)c1C1CC1 (stereo not drawn) [Example 28, 2-((6-(4-aminopiperidin-1-yl)-3,5-dicyano-4-cyclopropylpyridin-2-yl)thio)-2-phenylacetamide] |  |
|  | 1000 to 31600 | D (Category D: ≥6.5) | > 750 |  | CCc1c(C#N)c(SC(C(N)=O)c2ccccc2)nc(N2CCC2)c1C#N (stereo not drawn) [Example 58, 2-[[6-(azetidin-1-yl)-3,5-dicyano-4-ethyl-2-pyridyl]sulfanyl]-2-phenyl-acetamide] |  |

— patent publication US10975056B2 (GlaxoSmithKline Intellectual Property Development Limited, priority 2016, dated 2021)
